Measured values from a compilation of properties of binary mixtures (doi:10.1021/acs.jced.2c00294).

Assay: xn = mol fraction of the nth substance listed
Settings: 101 kPa

CCCC[N+]1(C)CCCC1.N#C[N-]C#N + CCCC[N+]1(C)CCCC1.O=S(=O)([N-]S(=O)(=O)C(F)(F)F)C(F)(F)F
x2 = 0.5
Settings	electrical conductivity [S/m]	viscosity [mPa·s]
298 K	0.565	51.3
303 K	0.642	36.1
308 K	0.746	32
313 K	0.857	26.7
328 K	–	17.06

N#C[N-]S(=O)(=O)C(F)(F)F.[Li+] + CCCC[N+]1(CCCC1)C.[N-](C#N)S(=O)(=O)C(F)(F)F
Settings	electrical conductivity, x1 = 0.05 [S/m]	electrical conductivity, x1 = 0.1 [S/m]	electrical conductivity, x1 = 0.2 [S/m]	viscosity, x1 = 0.05 [mPa·s]	viscosity, x1 = 0.1 [mPa·s]	viscosity, x1 = 0.2 [mPa·s]
298 K	0.314	0.227	0.08	73	107.9	379
303 K	0.372	–	0.101	62.2	–	312
308 K	0.442	0.334	0.127	50.5	73	243
313 K	0.523	0.401	0.156	42.4	60.7	191
318 K	0.611	0.513	–	35.8	50.6	–
323 K	–	–	0.234	–	–	121.8
328 K	–	–	–	23.6	–	99.9

CCCC[N+]1(C)CCCC1.N#C[N-]S(=O)(=O)C(F)(F)F + [Li+].[N-](C#N)S(=O)(=O)C(F)(F)F
x2 = 0
Settings	electrical conductivity [S/m]	viscosity [mPa·s]
298 K	0.458	45.9
303 K	0.546	40.4
318 K	0.869	24.6
323 K	1	21.5
328 K	–	16.19
